This note sets out measurements from PubChem BioAssay AID1671243.

In the assay the target is Casein kinase I isoform alpha (Homo sapiens) (UniProt P48729). Nature of the assay: CSNK1A1 kinase inhibitors, dose response, biochemical, Z'-LYTE, FRET, direct format (AID 1671243). The note with it: Z'-LYTE FRET kinase activity assay.

SMILES strings stand for the structures.

Chain of Casein kinase I isoform alpha (Homo sapiens) (P48729 whole entry, looked up, canonical isoform): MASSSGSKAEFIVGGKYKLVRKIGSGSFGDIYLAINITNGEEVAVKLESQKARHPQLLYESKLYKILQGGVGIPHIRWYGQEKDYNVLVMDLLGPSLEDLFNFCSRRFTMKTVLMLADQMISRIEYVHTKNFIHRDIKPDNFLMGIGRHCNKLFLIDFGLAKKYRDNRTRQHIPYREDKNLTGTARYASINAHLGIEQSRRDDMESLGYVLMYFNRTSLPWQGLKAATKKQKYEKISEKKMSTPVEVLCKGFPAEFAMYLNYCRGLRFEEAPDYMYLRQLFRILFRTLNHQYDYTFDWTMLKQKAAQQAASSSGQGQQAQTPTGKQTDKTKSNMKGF

`Brc1c(Br)c(Br)c2n[nH]nc2c1Br`: the IC50 is 17.6 µM.
